# Laboratory results published in patent publication US6822146B2, “Sulfonylurea-tolerant sunflower line M7” (priority 2000, dated 2004).
# Legend:
# [1] = system: H89A × RHA274 (sulfonylurea-susceptible hybrid); assay: Test G control of volunteer sunflower, H89A × RHA274; assay type: in vivo; settings: 530 g a.i./ha; rated 4 weeks after application; scale 0-100
# BC2-M3M11 = assay: Test G control of volunteer sunflower, BC2-M3M11; assay type: in vivo; settings: 530 g a.i./ha; rated 4 weeks after application; scale 0-100
# BC2-M3M12 = assay: Test G control of volunteer sunflower, BC2-M3M12; assay type: in vivo; settings: 530 g a.i./ha; rated 4 weeks after application; scale 0-100
# [2] = system: mutants originating from M11 and M12; settings: Test G rates
# From the text: This test involved sulfonylurea-resistant sunflower progeny BC2-M3M11 and BC2-M3M12, derived from M11 and M12, respectively. Also, a sulfonylurea-susceptible hybrid, H89A×RHA274, was included for comparison. Plants were sprayed with formulated herbicides at the 4-leaf stage. The efficacy of the treatments on the sunflowers was visually rated 4 weeks after application, using a scale where 0 means no control of the sunflowers, 85 means sufficient efficacy level to stop plants from flowering and propagating, and 100 means a complete destruction of the mutants.
# Weed control in sugar beet requires 2-3 herbicide applications per season to efficiently control weeds in this slow growing crop.
# Capsella bursa pastoris = assay: Test H weed control, field plots; assay type: in vivo; design: concentration or dose not given beside the values; settings: 36 days after treatment; g a.i./ha: tribenuron-methyl 22.5, metsulfuron-methyl 6, ethametsulfuron-methyl 16, imazapyr isopropylamine salt 15, aclonifen 1200
# From the text: (§1) Field plots (2 m×5 m) were tilled to remove weed cover and then seeded in rows with the following weeds: Capsella bursa pastoris, Atriplex patula, Chenopodium album, Stellaria media, Mecurialis annua, Polygonum persicaria, Amaranthus retroflexus, Polygonum convolvulus, Polygonum aviculare, Viola arvensis, Matricaria inodora, Anagallis arvensis, Sinapis arvensis, Setaria viridis, Solanum nigrum and Echinochloa crusgalli. After 21 days from sowing, at which time the weeds had reached the 2- to 6-leaf stage, herbicide treatments were applied to the plots according to a complete randomized block design, with each herbicide treatment triply replicated. The herbicides were sprayed using standard flat fan nozzles moved perpendicular to the sown lines using water spray volumes of about 296 L/ha.
# (§2) Assessments of weed control were made by visual inspection 36 days after herbicide treatment. A visual rating system was used based on a percentage scale from 0 to 100% compared to an adjacent untreated control plot. On this scale 0 represents no visual differences relative to an untreated control and 100 represents complete control of the given weed species.
# Matricaria inodora = assay: Test H weed control, field plots; assay type: in vivo; design: concentration or dose not given beside the values; settings: 36 days after treatment; g a.i./ha: tribenuron-methyl 22.5, metsulfuron-methyl 6, ethametsulfuron-methyl 16, imazapyr isopropylamine salt 15, aclonifen 1200
# From the text: as §1, §2
# Polygonum persicaria = assay: Test H weed control, field plots; assay type: in vivo; design: concentration or dose not given beside the values; settings: 36 days after treatment; g a.i./ha: tribenuron-methyl 22.5, metsulfuron-methyl 6, ethametsulfuron-methyl 16, imazapyr isopropylamine salt 15, aclonifen 1200
# From the text: as §1, §2
# Echinochloa crus-galli = assay: Test H weed control, field plots; assay type: in vivo; design: concentration or dose not given beside the values; settings: 36 days after treatment; g a.i./ha: tribenuron-methyl 22.5, metsulfuron-methyl 6, ethametsulfuron-methyl 16, imazapyr isopropylamine salt 15, aclonifen 1200
# From the text: as §1, §2
# Amaranthus retroflexus = assay: Test H weed control, field plots; assay type: in vivo; design: concentration or dose not given beside the values; settings: 36 days after treatment; g a.i./ha: tribenuron-methyl 22.5, metsulfuron-methyl 6, ethametsulfuron-methyl 16, imazapyr isopropylamine salt 15, aclonifen 1200
# From the text: as §1, §2
# Setaria viridis = assay: Test H weed control, field plots; assay type: in vivo; design: concentration or dose not given beside the values; settings: 36 days after treatment; g a.i./ha: tribenuron-methyl 22.5, metsulfuron-methyl 6, ethametsulfuron-methyl 16, imazapyr isopropylamine salt 15, aclonifen 1200
# From the text: as §1, §2
# Anagallis arvensis = assay: Test H weed control, field plots; assay type: in vivo; design: concentration or dose not given beside the values; settings: 36 days after treatment; g a.i./ha: tribenuron-methyl 22.5, metsulfuron-methyl 6, ethametsulfuron-methyl 16, imazapyr isopropylamine salt 15, aclonifen 1200
# From the text: as §1, §2
# Solanum nigrum = assay: Test H weed control, field plots; assay type: in vivo; design: concentration or dose not given beside the values; settings: 36 days after treatment; g a.i./ha: tribenuron-methyl 22.5, metsulfuron-methyl 6, ethametsulfuron-methyl 16, imazapyr isopropylamine salt 15, aclonifen 1200
# From the text: as §1, §2
# Viola arvensis = assay: Test H weed control, field plots; assay type: in vivo; design: concentration or dose not given beside the values; settings: 36 days after treatment; g a.i./ha: tribenuron-methyl 22.5, metsulfuron-methyl 6, ethametsulfuron-methyl 16, imazapyr isopropylamine salt 15, aclonifen 1200
# From the text: as §1, §2
# Mercurialis annua = assay: Test H weed control, field plots; assay type: in vivo; design: concentration or dose not given beside the values; settings: 36 days after treatment; g a.i./ha: tribenuron-methyl 22.5, metsulfuron-methyl 6, ethametsulfuron-methyl 16, imazapyr isopropylamine salt 15, aclonifen 1200
# From the text: as §1, §2
# Atriplex patula = assay: Test H weed control, field plots; assay type: in vivo; design: concentration or dose not given beside the values; settings: 36 days after treatment; g a.i./ha: tribenuron-methyl 22.5, metsulfuron-methyl 6, ethametsulfuron-methyl 16, imazapyr isopropylamine salt 15, aclonifen 1200
# From the text: as §1, §2
# Polygonum convolvulus = assay: Test H weed control, field plots; assay type: in vivo; design: concentration or dose not given beside the values; settings: 36 days after treatment; g a.i./ha: tribenuron-methyl 22.5, metsulfuron-methyl 6, ethametsulfuron-methyl 16, imazapyr isopropylamine salt 15, aclonifen 1200
# From the text: as §1, §2
# Polygonum aviculare = assay: Test H weed control, field plots; assay type: in vivo; design: concentration or dose not given beside the values; settings: 36 days after treatment; g a.i./ha: tribenuron-methyl 22.5, metsulfuron-methyl 6, ethametsulfuron-methyl 16, imazapyr isopropylamine salt 15, aclonifen 1200
# From the text: as §1, §2
# Sinapis arvensis = assay: Test H weed control, field plots; assay type: in vivo; design: concentration or dose not given beside the values; settings: 36 days after treatment; g a.i./ha: tribenuron-methyl 22.5, metsulfuron-methyl 6, ethametsulfuron-methyl 16, imazapyr isopropylamine salt 15, aclonifen 1200
# From the text: as §1, §2
# Stellaria media = assay: Test H weed control, field plots; assay type: in vivo; settings: 36 days after treatment; g a.i./ha: tribenuron-methyl 22.5, metsulfuron-methyl 6, ethametsulfuron-methyl 16, imazapyr isopropylamine salt 15, aclonifen 1200
# From the text: as §1, §2
# Chenopodium album = assay: Test H weed control, field plots; assay type: in vivo; settings: 36 days after treatment; g a.i./ha: tribenuron-methyl 22.5, metsulfuron-methyl 6, ethametsulfuron-methyl 16, imazapyr isopropylamine salt 15, aclonifen 1200
# From the text: as §1, §2
Structure (SMILES),Efficacy on H89A × RHA274 [1],Efficacy on BC2-M3M11 (BC2-M3M11),Efficacy on BC2-M3M12 (BC2-M3M12),efficacy against the mutants [2],"weed control, visual rating: Capsella bursa pastoris (Capsella bursa pastoris) [%]","weed control, visual rating: Matricaria inodora (Matricaria inodora) [%]","weed control, visual rating: Polygonum persicaria (Polygonum persicaria) [%]","weed control, visual rating: Echinochloa crus-galli (Echinochloa crus-galli) [%]","weed control, visual rating: Amaranthus retroflexus (Amaranthus retroflexus) [%]","weed control, visual rating: Setaria viridis (Setaria viridis) [%]","weed control, visual rating: Anagallis arvensis (Anagallis arvensis) [%]","weed control, visual rating: Solanum nigrum (Solanum nigrum) [%]","weed control, visual rating: Viola arvensis (Viola arvensis) [%]","weed control, visual rating: Mercurialis annua (Mercurialis annua) [%]","weed control, visual rating: Atriplex patula (Atriplex patula) [%]","weed control, visual rating: Polygonum convolvulus (Polygonum convolvulus) [%]","weed control, visual rating: Polygonum aviculare (Polygonum aviculare) [%]","weed control, visual rating: Sinapis arvensis (Sinapis arvensis) [%]","weed control, visual rating: Stellaria media (Stellaria media) [%]","weed control, visual rating: Chenopodium album (Chenopodium album) [%]"
"O=C(O)COc1ccc(Cl)cc1Cl [2,4-D, 2,4-dichlorophenoxyacetic acid]",100,100,100,completely-destroyed,,,,,,,,,,,,,,,,
"Nc1c([N+](=O)[O-])ccc(Oc2ccccc2)c1Cl [Aclonifen, aclonifen]",,,,,100,0,70,0,40,40,100,20,57,50,0,23,30,100,100,100
